ChEMBL document CHEMBL1158973, “The crystal structure and cytotoxicity of goniodiol-7-monoacetate from Goniothalamus amuyon” (1991)
Values after ≈ are worked out from the molar mass of the structure shown. Active and inactive are the calls of the source. No cut-off for these calls is given here.

Experiments:
A549 [1] = experiment: Cytotoxicity against human A549 cells; format: functional; settings: read-out: ED50 (the source's name)
KB = experiment: Cytotoxicity against human KB cells; format: functional; settings: read-out: ED50 (the source's name)
[2] = Cytotoxicity against human RPMI cells; format: functional; settings: read-out: ED50 (the source's name)
HCT-8 = experiment: Cytotoxicity against human HCT8 cells at 4 ug/ml; format: functional, cell-based
TE-671 = experiment: Cytotoxicity against human TE671 cells; format: functional; settings: read-out: ED50 (the source's name)
P388 = experiment: Cytotoxicity against mouse P388 cells; format: functional; settings: read-out: ED50 (the source's name)
A549 [3] = experiment: Cytotoxicity against human A549 cells at 4 ug/ml; format: functional, cell-based

O=C1C=CC[C@H]([C@H](O)[C@H](O)c2ccccc2)O1 [GONIODIOL]
EC50 (A549 [1]): 0.12 µg/mL (≈ 0.512 µM)

CC(=O)O[C@H]([C@H](O)c1ccccc1)[C@H]1CC=CC(=O)O1
EC50 (KB): < 0.1 µg/mL | EC50 [2]: < 0.1 µg/mL | Activity (HCT-8): inactive | EC50 (TE-671): < 0.1 µg/mL | EC50 (P388): < 0.1 µg/mL | Activity (A549 [3]): inactive
